Assays:
[1] = system: PC12h cells; experiment: Oxidative glutamate toxicity in PC12h cells (MTT assay); format: cell-based
Protocol: PC12h cells, PC12hW1B cells, and PC12hD5D cells (expressing Nrf2DN) were incubated with various concentrations of glutamate for 20 h. […] Various concentrations of CA were added to PC12, PC or PC12hD5D cells 1 h prior to exposure to 5 mM glutamate for 20 h.
PC12h and COST cell cultures.
Thus, we examined whether CA could protect PC12h cells from such insults. We prepared naïve PC12h cells, Nrf2WT-expressing PC12h cells (PC12hW1B), and Nrf2DN-expressing PC12h cells (PC12hD5D). In order to examine the effects of the Keap1/Nrf2 pathway on cell survival in the face of oxidative stress, we exposed the cells to a high concentration of glutamate. […] To visualize surviving and dead cells, we stained cultures with fluorescein diacetate (FDA) and propidium iodide (PI), respectively. Additionally, cell survival was quantified by the 3-(4,5-dimethylthiazol-2-yl)-2,5-diphenyl tetrazolium bromide (MTT) assay (FIG. 4A).
We next tested the hypothesis that CA-induced neuroprotection is mediated by the Keap1/NRf2 pathway.

[2] = target: T1, Keap1 (Mus musculus, UniProt Q9Z2X8); experiment: Binding of CAB/CA to Keap1 and Keap1 deletion mutants (streptavidin precipitation); details: PC12h cells transfected with Keap1 (non-HA-tagged)
T1 construct: expressed in transfected cells; host or cells: COS7 cells
Protocol: (3) Expression vectors for HA-tagged Keap1 and Keap1 deletion mutants. These constructs were obtained from Dr. Akira Kobayashi of Tohoku University (Hosoya et al., J. Biol. Chem. 29:27244-27250, 2006; Kobayashi et al., Mol. Cell. Biol. 26:221-229, 2006).
Immunoprecipitation with agarose-immobilized streptavidin or antibody. PC12h cells (CAB- or vehicle-treated) were lysed in RIPA buffer supplemented with protease inhibitor cocktail. The lysates were centrifuged at 15,000 rpm for 10 min at 4° C., after which the supernatants were incubated with agarose-immobilized streptavidin at 4° C. for 1 h. Alternatively, for immunoprecipitation with anti-Keap1, the cell lysates were incubated with the antibody at 4° C. overnight, after which protein A immobilized on Sepharose CL-4B was added and incubation continued at 4° C. for 1 h. Then, the complexes were washed three times with rinse buffer (150 mM NaCl, 50 mM Tris-HCl [pH 7.5], 0.1% NP-40, 1 mM EDTA, and 0.02% NaN3). SDS sample buffer was added, the mixture was boiled for 5 min, and the supernatants were subjected to SDS-PAGE. Immunoblotting was then performed as described above.
CA activates the Keap1/Nrf2/ARE pathway. […] The initial reaction in this activation cascade is the binding of an electrophilic compound to specific cysteines on Keap1 protein (Hong et al., Chem. Res. Toxicol. 18: 1917-1926, 2005; Eggler et al., Proc. Nat. Acad. Sci. USA 102:10070-10075, 2005; Zhang et al., Mol. Cell. Biol. 10941-10953, 2004). Such binding initiates a cellular transcription pathway leading to induction of phase 2 enzymes (Talalay, Biofactors 12:5-11, 2000; Padmanabham et al., Mol. Cell 21:689-700, 2006; Itoh et al., Free Radic. Biol. Med. 36:1208-1213, 2004). Therefore, we examined the domains of Keap1 (designated BTB, IVR, and DGR) to determine those essential for binding to CA. Accordingly, for co-immunoprecipitation experiments, we transfected COS7 cells with DNA expressing either HA-tagged wild type Keap1 protein (HA-WT Keap1) or various deletion mutants of tagged Keap1 protein (HA-ΔBTB Keap1, HA-ΔIVR Keap1, and HA-ΔDGR Keap1). The transfected COS7 cells were then treated with vehicle or 10 μM CAB and lysed. We quantified the expression level of Keap1 protein in total cell lysates with anti-HA antibody. Each Keap1 mutant protein was expressed at a similar level of the predicted molecular weight (57 kDa for HA-ΔBTB Keap1, 53 kDa for HA-ΔIVR Keap1, and 37 kDa for HA-ΔDGR Keap1). Next, in order to detect Keap1/CAB complexes, we immunoprecipitated cell lysates with streptavidin and probed with anti-HA antibody. […] The requirement of the BTB domain for CA binding is in accord with prior results (Hong et al., Chem. Res. Toxicol. 18:1917-1926, 2005; Eggler et al., Proc. Nat. Acad. Sci. USA 102:10070-10075, 2005; Zhang et al., Mol. Cell. Biol. 24:10941-10953, 2004).
After binding of the electrophilic quinone-form of CA to Keap1 protein, activation of the Keap1/Nrf2 pathway requires nuclear translocation of Nrf2 (Talalay, Biofactors 12:5-11, 2000; Padmanabham et al., Mol. Cell 21:689-700, 2006; Itoh et al., Free Radic. Biol. Med. 36:1208-1213, 2004). Thus, we next examined the intracellular distribution of Nrf2 protein in COS7 cells by immunofluorescence.

[3] = system: ARE probe; experiment: EMSA with biotin-labeled ARE probe, HT22 nuclear lysates; format: cell-based; details: HT22 cells, NEPP11 1 μM, 8 h
Protocol: Electrophoretic mobility shift assays (EMSAs). Double-stranded antioxidant-responsive elements (AREs) were labeled by using a biotin 3′-end DNA labeling kit (Pierce). Nuclear lysates were incubated with the labeled probe for 20 min at room temperature, resolved on an 8% native polyacrylamide gel, and transferred to Hybond-N^+ (Amersham Pharmacia). Signals were visualized with peroxidase-conjugated streptavidin (Pierce).
To confirm that NEPP11 leads to an increase in transcription factors, including Nrf2, that bind to the ARE, we performed EMSAs. HT22 cells were incubated for 8 h with vehicle or NEPP11 (1 μM). EMSAs were performed by using 10 μg of nuclear lysates per lane and a biotin-labeled ARE probe. In one lane, anti-Nrf2 antibody (100×) was added to supershift Nrf2 protein binding to ARE probe. In another lane, an excess amount of non-labeled probe was added to the sample to compete out the labeled ARE probe from binding to proteins in the nuclear lysates. […] The band representing the labeled ARE probe was shifted in the presence of control lysates, indicating binding of endogenous transcription factors to the ARE. […] In contrast, the band was totally abrogated in the presence of excess unlabeled probe. […]

T1 sequence (Q9Z2X8 whole entry): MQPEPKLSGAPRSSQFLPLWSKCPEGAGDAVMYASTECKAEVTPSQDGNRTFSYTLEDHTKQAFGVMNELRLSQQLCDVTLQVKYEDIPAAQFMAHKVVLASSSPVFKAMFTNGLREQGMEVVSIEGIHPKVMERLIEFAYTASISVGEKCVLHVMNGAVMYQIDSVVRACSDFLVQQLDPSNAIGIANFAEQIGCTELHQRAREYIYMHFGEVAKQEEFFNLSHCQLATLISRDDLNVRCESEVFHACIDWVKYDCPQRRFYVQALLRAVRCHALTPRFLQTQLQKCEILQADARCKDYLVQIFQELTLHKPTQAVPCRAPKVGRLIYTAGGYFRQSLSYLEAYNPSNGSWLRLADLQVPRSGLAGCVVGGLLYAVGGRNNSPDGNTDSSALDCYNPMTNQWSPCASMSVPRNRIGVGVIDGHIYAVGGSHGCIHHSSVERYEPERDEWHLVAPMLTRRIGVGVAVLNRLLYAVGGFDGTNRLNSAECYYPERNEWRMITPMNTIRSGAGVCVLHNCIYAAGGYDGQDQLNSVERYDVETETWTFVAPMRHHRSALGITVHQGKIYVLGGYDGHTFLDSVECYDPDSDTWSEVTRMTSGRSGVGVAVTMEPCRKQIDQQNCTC

Compound	protective effects in PC12hD5D cells (Nrf2DN) ([1]; CA)	concentrations protecting PC12h cells against oxidative glutamate toxicity ([1]; dose-dependent, 5 mM glutamate 20 h, CA 1 h prior) [µM]	complex formation with Keap1 [2]	shifted ARE probe band intensity [3]
CC(C)c1cc2c(c(O)c1O)[C@@]1(C(=O)O)CCCC(C)(C)[C@@H]1CC2 [CA, carnosic acid]	significantly suppressed	0.1 to 1	formed CA/Keap1 complexes	
COC(=O)CCCCC/C=C1/C(=O)C=C[C@H]1CCCCCCc1ccc(C)cc1 [NEPP11]				significant increase in the intensity of this band

Reference: patent US8466311B2, “Neuroprotective compositions and methods” (Sanford-Burnham Medical Research Institute, priority 2006, dated 2013)
